Source: patent US11040958B2, “Triazole antimicrobial derivative, pharmaceutical composition and use thereof” (priority 2017, dated 2021)

Test system: Candida albicans ATCC10231
Assay: Systemic fungal infection in mice, intravenous administration, survival
Format: in vivo
Settings: ICR mice, tail vein, 5 mg/kg (calculated as voriconazole) once daily for 5 days
Outline: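 Male ICR mice (18-22 g) infected via tail vein with C. albicans ATCC10231 at 5*10^6 cells/ml, 0.1 ml/10 g; groups of 10. From 2 h post-infection, 5 mg/kg (as voriconazole) given i.v. once daily for 5 days, saline vehicle (voriconazole in sulfobutyl ether-β-cyclodextrin); survival time recorded over 7 days.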

In the case of CC(OC(=O)SCCO)[n+]1cnn(C[C@](O)(c2ccc(F)cc2F)[C@@H](C)c2ncncc2F)c1 (stereo partly drawn) [Compound 16037], the “survival rate of mice, day 1” value (day 1) is reported as 100%, the “survival rate of mice, day 2” value (day 2) is reported as 100% and the “survival rate of mice, day 3” value (day 3) is reported as 90%. The “survival rate of mice, day 4” value (day 4) was 90%, the “survival rate of mice, day 5” value (day 5) was 90% and the “survival rate of mice, day 6” value (day 6) was 80%.
